Test results reported in patent US9156845B2, “4-(substituted amino)-7H-pyrrolo[2,3-d] pyrimidines as LRRK2 inhibitors” (Pfizer Inc., priority 2012, dated 2015).

Columns and labels:
Experiment in all cases: ActivX kinase probe assay (human PBMC)
Format in all cases: binding
PIK3C3 = PIK3C3 (Homo sapiens (Human), UniProt Q8NEB9); settings: PIK3C3, read-out: percent inhibition
FRAP = FRAP (Homo sapiens (Human), UniProt P42345); settings: FRAP, read-out: percent inhibition
LYN = LYN (Homo sapiens (Human), UniProt P07948); settings: LYN, read-out: percent inhibition
NEK1 = NEK1 (Homo sapiens (Human), UniProt Q96PY6); settings: NEK1, read-out: percent inhibition
IKKb = IKKb (Homo sapiens (Human), UniProt O14920); settings: IKKb, read-out: percent inhibition
p70S6K = p70S6K (Homo sapiens (Human), UniProt P23443); settings: p70S6K, read-out: percent inhibition
PIK3CB = PIK3CB (Homo sapiens (Human), UniProt P42338); settings: PIK3CB, read-out: percent inhibition
CaMK1d = CaMK1d (Homo sapiens (Human), UniProt Q8IU85); settings: CaMK1d, read-out: percent inhibition
MAP2K4 = MAP2K4 (Homo sapiens (Human), UniProt P45985); settings: MAP2K4, read-out: percent inhibition
p70S6K, p70S6Kb = system: p70S6K, p70S6Kb
MST3 = MST3 (Homo sapiens (Human), UniProt Q9Y6E0); settings: MST3, read-out: percent inhibition
MAP2K3 = MAP2K3 (Homo sapiens (Human), UniProt P46734); settings: MAP2K3, read-out: percent inhibition
MARK3 = MARK3 (Homo sapiens (Human), UniProt P27448); settings: MARK3, read-out: percent inhibition
Chain of MARK3 (P27448 whole entry, the tested form may be a part): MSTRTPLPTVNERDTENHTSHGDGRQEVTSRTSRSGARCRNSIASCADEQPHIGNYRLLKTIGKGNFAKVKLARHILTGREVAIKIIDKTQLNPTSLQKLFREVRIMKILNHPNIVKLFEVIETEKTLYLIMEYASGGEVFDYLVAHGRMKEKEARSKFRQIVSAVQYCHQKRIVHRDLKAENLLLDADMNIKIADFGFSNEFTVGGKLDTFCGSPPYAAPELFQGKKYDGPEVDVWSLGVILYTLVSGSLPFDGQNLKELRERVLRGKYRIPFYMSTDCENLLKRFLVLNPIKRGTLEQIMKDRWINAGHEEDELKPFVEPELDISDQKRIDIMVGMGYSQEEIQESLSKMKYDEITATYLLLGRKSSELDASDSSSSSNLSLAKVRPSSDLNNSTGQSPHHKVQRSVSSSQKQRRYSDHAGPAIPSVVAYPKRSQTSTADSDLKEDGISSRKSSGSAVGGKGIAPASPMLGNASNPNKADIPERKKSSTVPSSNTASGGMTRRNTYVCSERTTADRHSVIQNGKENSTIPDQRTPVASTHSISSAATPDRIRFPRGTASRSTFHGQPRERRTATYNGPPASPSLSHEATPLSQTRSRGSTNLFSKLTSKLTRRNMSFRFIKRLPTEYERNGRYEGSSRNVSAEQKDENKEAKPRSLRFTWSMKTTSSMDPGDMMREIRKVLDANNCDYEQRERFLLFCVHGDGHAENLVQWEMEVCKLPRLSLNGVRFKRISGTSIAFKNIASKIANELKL

JAK3 domain2 = JAK3 domain2 (Homo sapiens (Human), UniProt P52333); settings: JAK3 domain2, read-out: percent inhibition
TAO1, TAO3 = system: TAO1, TAO3
MAP3K1 = MAP3K1 (Homo sapiens (Human), UniProt Q13233); settings: MAP3K1, read-out: percent inhibition
Chain of MAP3K1 (Q13233 whole entry): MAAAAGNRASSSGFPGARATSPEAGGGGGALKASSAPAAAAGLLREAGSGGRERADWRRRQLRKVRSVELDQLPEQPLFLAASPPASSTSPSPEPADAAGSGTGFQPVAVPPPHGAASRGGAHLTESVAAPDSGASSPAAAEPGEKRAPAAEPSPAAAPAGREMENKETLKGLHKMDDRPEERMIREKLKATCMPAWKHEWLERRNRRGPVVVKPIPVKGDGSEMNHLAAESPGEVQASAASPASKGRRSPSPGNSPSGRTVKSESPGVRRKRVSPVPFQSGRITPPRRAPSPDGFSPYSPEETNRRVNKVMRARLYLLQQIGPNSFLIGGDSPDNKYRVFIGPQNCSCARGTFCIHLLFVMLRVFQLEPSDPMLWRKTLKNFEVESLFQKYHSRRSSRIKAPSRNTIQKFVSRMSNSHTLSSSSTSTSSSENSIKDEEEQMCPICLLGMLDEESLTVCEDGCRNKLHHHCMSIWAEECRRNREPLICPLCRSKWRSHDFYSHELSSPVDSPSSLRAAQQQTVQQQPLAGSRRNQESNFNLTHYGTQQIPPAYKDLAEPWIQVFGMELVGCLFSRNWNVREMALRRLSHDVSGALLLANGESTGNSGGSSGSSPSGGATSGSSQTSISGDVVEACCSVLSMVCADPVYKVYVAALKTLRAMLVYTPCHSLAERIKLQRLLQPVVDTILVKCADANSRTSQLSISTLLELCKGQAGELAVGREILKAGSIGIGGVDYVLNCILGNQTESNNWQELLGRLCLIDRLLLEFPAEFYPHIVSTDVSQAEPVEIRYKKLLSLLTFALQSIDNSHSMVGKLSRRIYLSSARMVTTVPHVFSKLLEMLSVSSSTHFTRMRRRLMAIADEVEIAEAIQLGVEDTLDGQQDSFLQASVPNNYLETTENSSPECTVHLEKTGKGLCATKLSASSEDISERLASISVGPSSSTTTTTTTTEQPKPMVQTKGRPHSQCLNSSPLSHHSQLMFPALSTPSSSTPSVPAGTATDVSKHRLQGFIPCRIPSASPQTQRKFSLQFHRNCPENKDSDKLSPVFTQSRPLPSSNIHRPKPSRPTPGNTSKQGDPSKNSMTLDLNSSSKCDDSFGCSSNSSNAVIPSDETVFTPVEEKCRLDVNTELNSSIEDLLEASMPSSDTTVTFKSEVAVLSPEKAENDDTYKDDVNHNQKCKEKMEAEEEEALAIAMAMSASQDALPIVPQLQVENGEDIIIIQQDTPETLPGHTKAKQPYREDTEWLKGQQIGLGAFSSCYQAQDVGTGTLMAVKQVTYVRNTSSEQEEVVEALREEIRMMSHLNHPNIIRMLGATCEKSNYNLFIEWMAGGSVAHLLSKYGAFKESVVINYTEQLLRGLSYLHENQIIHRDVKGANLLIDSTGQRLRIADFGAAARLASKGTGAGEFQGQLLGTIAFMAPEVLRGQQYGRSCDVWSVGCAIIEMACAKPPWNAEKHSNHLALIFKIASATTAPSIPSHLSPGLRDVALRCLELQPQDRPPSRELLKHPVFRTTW

HPK1 = HPK1 (Homo sapiens (Human), UniProt Q92918); settings: HPK1, read-out: percent inhibition
Chain of HPK1 (Q92918 whole entry): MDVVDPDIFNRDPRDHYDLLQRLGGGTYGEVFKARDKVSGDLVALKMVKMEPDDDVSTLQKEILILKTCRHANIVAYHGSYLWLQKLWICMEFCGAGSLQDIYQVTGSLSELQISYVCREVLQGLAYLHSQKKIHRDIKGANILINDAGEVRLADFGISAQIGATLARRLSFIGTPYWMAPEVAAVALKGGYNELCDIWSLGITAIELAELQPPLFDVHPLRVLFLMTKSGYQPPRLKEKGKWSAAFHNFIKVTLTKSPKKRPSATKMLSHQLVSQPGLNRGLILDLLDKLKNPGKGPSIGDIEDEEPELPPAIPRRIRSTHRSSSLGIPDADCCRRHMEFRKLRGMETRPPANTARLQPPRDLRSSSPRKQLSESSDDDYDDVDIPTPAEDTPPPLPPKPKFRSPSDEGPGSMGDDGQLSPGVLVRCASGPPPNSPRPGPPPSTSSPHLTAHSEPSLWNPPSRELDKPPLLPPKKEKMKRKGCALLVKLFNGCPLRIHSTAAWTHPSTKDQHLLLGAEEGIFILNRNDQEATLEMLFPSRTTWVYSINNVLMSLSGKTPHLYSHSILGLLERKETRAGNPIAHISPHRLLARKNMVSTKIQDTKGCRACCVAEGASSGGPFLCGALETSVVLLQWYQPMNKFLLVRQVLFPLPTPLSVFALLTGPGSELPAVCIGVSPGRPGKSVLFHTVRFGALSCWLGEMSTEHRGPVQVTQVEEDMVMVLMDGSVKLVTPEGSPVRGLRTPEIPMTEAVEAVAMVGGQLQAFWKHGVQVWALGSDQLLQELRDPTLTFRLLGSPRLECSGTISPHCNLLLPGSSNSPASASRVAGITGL

Wnk1, Wnk2, Wnk4 = system: Wnk1, Wnk2, Wnk4
SLK = SLK (Homo sapiens (Human), UniProt Q9H2G2); settings: SLK, read-out: percent inhibition
NEK7 = NEK7 (Homo sapiens (Human), UniProt Q8TDX7); settings: NEK7, read-out: percent inhibition
NEK6, NEK7 = system: NEK6, NEK7
LKB1 = LKB1 (Homo sapiens (Human), UniProt Q15831); settings: LKB1, read-out: percent inhibition
IKKa = IKKa (Homo sapiens (Human), UniProt O15111); settings: IKKa, read-out: percent inhibition
JAK1 = JAK1 (Homo sapiens (Human), UniProt P23458); settings: JAK1, read-out: percent inhibition
Chain of JAK1 (P23458 whole entry): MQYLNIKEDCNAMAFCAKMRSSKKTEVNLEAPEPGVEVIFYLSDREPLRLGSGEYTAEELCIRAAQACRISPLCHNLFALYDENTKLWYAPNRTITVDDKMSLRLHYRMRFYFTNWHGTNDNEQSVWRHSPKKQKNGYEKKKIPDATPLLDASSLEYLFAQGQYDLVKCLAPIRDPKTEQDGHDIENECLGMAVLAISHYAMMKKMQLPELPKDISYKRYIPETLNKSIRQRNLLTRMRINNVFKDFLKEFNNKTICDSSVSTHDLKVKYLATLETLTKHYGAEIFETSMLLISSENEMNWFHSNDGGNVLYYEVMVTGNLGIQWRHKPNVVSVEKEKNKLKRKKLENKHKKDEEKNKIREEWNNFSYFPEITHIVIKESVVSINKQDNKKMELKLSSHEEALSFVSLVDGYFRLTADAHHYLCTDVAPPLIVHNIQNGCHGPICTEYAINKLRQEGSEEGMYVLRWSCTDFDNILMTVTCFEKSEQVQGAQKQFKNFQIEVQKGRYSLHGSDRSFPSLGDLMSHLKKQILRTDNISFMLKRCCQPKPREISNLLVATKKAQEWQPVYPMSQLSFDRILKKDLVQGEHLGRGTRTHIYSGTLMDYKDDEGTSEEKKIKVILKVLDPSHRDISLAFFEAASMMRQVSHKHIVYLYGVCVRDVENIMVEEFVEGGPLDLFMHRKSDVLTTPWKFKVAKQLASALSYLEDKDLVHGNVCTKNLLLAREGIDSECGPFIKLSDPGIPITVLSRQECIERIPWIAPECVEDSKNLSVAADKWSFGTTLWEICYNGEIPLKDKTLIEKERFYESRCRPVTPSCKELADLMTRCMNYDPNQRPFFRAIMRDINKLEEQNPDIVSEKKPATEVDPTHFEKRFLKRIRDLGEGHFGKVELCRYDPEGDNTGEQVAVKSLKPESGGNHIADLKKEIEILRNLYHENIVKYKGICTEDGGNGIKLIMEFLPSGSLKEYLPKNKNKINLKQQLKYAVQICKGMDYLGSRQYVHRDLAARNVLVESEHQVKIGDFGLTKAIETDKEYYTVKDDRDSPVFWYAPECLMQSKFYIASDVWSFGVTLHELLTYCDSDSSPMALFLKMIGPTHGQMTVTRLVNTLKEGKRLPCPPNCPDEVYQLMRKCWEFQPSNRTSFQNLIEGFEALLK

GSK3B = GSK3B (Homo sapiens (Human), UniProt P49841); settings: GSK3B, read-out: percent inhibition
JNK1, JNK2, JNK3 = system: JNK1, JNK2, JNK3
BTK = BTK (Homo sapiens (Human), UniProt Q06187); settings: BTK, read-out: percent inhibition
RSK1 domain1 = RSK1 domain1 (Homo sapiens (Human), UniProt Q15418); settings: RSK1 domain1, read-out: percent inhibition
ILK = ILK (Homo sapiens (Human), UniProt Q13418); settings: ILK, read-out: percent inhibition
IRAK3 = IRAK3 (Homo sapiens (Human), UniProt Q9Y616); settings: IRAK3, read-out: percent inhibition
Chain of IRAK3 (Q9Y616 whole entry): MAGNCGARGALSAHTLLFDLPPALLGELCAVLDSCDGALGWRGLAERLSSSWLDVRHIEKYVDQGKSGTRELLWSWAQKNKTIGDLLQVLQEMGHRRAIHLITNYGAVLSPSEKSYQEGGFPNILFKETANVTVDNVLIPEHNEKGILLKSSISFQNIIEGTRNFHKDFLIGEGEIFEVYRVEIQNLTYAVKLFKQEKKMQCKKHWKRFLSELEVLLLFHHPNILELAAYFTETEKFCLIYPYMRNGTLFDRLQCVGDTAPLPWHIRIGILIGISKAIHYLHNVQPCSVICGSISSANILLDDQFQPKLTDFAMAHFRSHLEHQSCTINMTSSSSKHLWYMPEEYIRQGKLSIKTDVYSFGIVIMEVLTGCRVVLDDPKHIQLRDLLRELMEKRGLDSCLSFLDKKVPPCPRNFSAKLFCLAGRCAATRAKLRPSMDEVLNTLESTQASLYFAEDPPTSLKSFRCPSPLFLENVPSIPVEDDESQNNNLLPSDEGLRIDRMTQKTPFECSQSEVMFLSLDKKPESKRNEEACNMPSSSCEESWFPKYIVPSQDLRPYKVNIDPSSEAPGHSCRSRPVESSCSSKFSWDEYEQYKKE

DNAPK = DNAPK (Homo sapiens (Human), UniProt P78527); settings: DNAPK, read-out: percent inhibition
p38d, p38g = system: p38d, p38g
EphA1 = EphA1 (Homo sapiens (Human), UniProt P21709); settings: EphA1, read-out: percent inhibition
PYK2 = PYK2 (Homo sapiens (Human), UniProt Q14289); settings: PYK2, read-out: percent inhibition
STLK5 = STLK5 (Homo sapiens (Human), UniProt Q7RTN6); settings: STLK5, read-out: percent inhibition
FGR = FGR (Homo sapiens (Human), UniProt P09769); settings: FGR, read-out: percent inhibition

SMILES: Cn1cc(-c2c[nH]c3ncnc(N4CCOCC4)c23)cn1 [Example 1, 5-(1-Methyl-1H-pyrazol-4-yl)-4-(morpholin-4-yl)-7H-pyrrolo[2,3-d]pyrimidine]
- inhibition at 0.1 µM (PIK3C3; 0.1 μM): 23.3%
- inhibition at 1 µM (PIK3C3; 1 μM): 4.8%
- inhibition at 0.1 µM (FRAP; 0.1 μM): -3.2%
- inhibition at 1 µM (FRAP; 1 μM): -1.2%
- inhibition at 0.1 µM (LYN; 0.1 μM): 3.8%
- inhibition at 1 µM (LYN; 1 μM): 7.8%
- inhibition at 0.1 µM (NEK1; 0.1 μM): 7%
- inhibition at 1 µM (NEK1; 1 μM): -10.1%
- inhibition at 0.1 µM (IKKb; 0.1 μM): 16.1%
- inhibition at 1 µM (IKKb; 1 μM): 10.8%
- inhibition at 0.1 µM (p70S6K; 0.1 μM): 23%
- inhibition at 1 µM (p70S6K; 1 μM): 18.9%
- inhibition at 0.1 µM (PIK3CB; 0.1 μM): -2.6%
- inhibition at 1 µM (PIK3CB; 1 μM): -29.8%
- inhibition at 0.1 µM (CaMK1d; 0.1 μM): 8.4%
- inhibition at 1 µM (CaMK1d; 1 μM): 3.2%
- inhibition at 0.1 µM (MAP2K4; 0.1 μM): 10.1%
- inhibition at 1 µM (MAP2K4; 1 μM): 9.6%
- percent inhibition (p70S6K, p70S6Kb; 0.1 μM): 9.4%
- percent inhibition (p70S6K, p70S6Kb; 1 μM): −3.5%
- inhibition at 0.1 µM (MST3; 0.1 μM): 10.9%
- inhibition at 1 µM (MST3; 1 μM): 28.4%
- inhibition at 0.1 µM (MAP2K3; 0.1 μM): 14.4%
- inhibition at 1 µM (MAP2K3; 1 μM): -9%
- inhibition at 0.1 µM (MARK3; 0.1 μM): 1%
- inhibition at 1 µM (MARK3; 1 μM): 29.1%
- inhibition at 0.1 µM (JAK3 domain2; 0.1 μM): 2.7%
- inhibition at 1 µM (JAK3 domain2; 1 μM): -5.2%
- percent inhibition (TAO1, TAO3; 0.1 μM): −24%
- percent inhibition (TAO1, TAO3; 1 μM): −14.9%
- inhibition at 0.1 µM (MAP3K1; 0.1 μM): -9.4%
- inhibition at 1 µM (MAP3K1; 1 μM): 11.9%
- inhibition at 0.1 µM (HPK1; 0.1 μM): -9.7%
- inhibition at 1 µM (HPK1; 1 μM): -14.9%
- percent inhibition (Wnk1, Wnk2, Wnk4; 0.1 μM): −15%
- percent inhibition (Wnk1, Wnk2, Wnk4; 1 μM): −13.5%
- inhibition at 0.1 µM (SLK; 0.1 μM): 22.9%
- inhibition at 1 µM (SLK; 1 μM): 50.6%
- inhibition at 0.1 µM (NEK7; 0.1 μM): -0.6%
- inhibition at 1 µM (NEK7; 1 μM): -18.8%
- percent inhibition (NEK6, NEK7; 0.1 μM): −1.7%
- percent inhibition (NEK6, NEK7; 1 μM): −17%
- inhibition at 0.1 µM (LKB1; 0.1 μM): -1.1%
- inhibition at 1 µM (LKB1; 1 μM): -14%
- inhibition at 0.1 µM (IKKa; 0.1 μM): -20%
- inhibition at 1 µM (IKKa; 1 μM): -40.5%
- inhibition at 0.1 µM (JAK1; 0.1 μM): 15%
- inhibition at 1 µM (JAK1; 1 μM): 54.2%
- inhibition at 0.1 µM (GSK3B; 0.1 μM): 2.4%
- inhibition at 1 µM (GSK3B; 1 μM): -5.2%
- percent inhibition (JNK1, JNK2, JNK3; 0.1 μM): 7.1%
- percent inhibition (JNK1, JNK2, JNK3; 1 μM): 7.7%
- inhibition at 0.1 µM (BTK; 0.1 μM): 8.7%
- inhibition at 1 µM (BTK; 1 μM): 3.7%
- inhibition at 0.1 µM (RSK1 domain1; 0.1 μM): 16.3%
- inhibition at 1 µM (RSK1 domain1; 1 μM): 59.8%
- inhibition at 0.1 µM (ILK; 0.1 μM): -34%
- inhibition at 1 µM (ILK; 1 μM): -56.6%
- inhibition at 0.1 µM (IRAK3; 0.1 μM): 30.1%
- inhibition at 1 µM (IRAK3; 1 μM): 68.7%
- inhibition at 0.1 µM (DNAPK; 0.1 μM): -4.4%
- inhibition at 1 µM (DNAPK; 1 μM): -30%
- percent inhibition (p38d, p38g; 0.1 μM): −37.3%
- percent inhibition (p38d, p38g; 1 μM): −24%
- inhibition at 0.1 µM (EphA1; 0.1 μM): -9.5%
- inhibition at 1 µM (EphA1; 1 μM): 19.6%
- inhibition at 0.1 µM (PYK2; 0.1 μM): 5.9%
- inhibition at 1 µM (PYK2; 1 μM): 19.5%
- inhibition at 0.1 µM (STLK5; 0.1 μM): -1.5%
- inhibition at 1 µM (STLK5; 1 μM): -46.5%
- inhibition at 0.1 µM (FGR; 0.1 μM): 12.9%
- inhibition at 1 µM (FGR; 1 μM): 4.6%
